Data from BindingDB's records for doi:10.1021/jm061344o (Incyte, 2007).

Assay: Inhibition of Her2 sheddase activity in BT474 cell line

IC50 [µM]	SMILES
0.14	O=C(NO)[C@H]1CC2(CC2)CN[C@@H]1C(=O)N1CCC(c2ccccc2)CC1 [(6S,7S)-N-hydroxy-6-[(4-phenylpiperidin-1-yl)carbonyl]-5-azaspiro[2.5]octane-7-carboxamide]
0.56	O=C(NO)[C@H]1CCCN[C@@H]1C(=O)N1CC[C@H](c2ccccc2)C1 [(2S,3S)-N-hydroxy-2-((R)-3-phenylpyrrolidine-1-carbonyl)piperidine-3-carboxamide]
0.28	O=C(NO)[C@H]1CC2(CC2)CN[C@@H]1C(=O)N1CCN2c3ccccc3CC2C1 (stereo partly drawn) [(6S,7S)-N-hydroxy-6-(3,4,10,10a-tetrahydropyrazino[1,2-a]indol-2(1H)-ylcarbonyl)-5-azaspiro[2.5]octane-7-carboxamide]
